± gives the expanded uncertainty stated by the source.
Settings: Liquid, Closed cell (Static) method

Row | Compound | vapor or sublimation pressure (293.15 K) | vapor or sublimation pressure (303.15 K) | vapor or sublimation pressure (313.15 K) | vapor or sublimation pressure (323.14 K)
1 | FCC(F)(F)F [1,1,1,2-tetrafluoroethane] | 571.1 ± 5.1 kPa | 771.4 ± 5.2 kPa | 1018.1 ± 5.3 kPa | 1316.9 ± 5.5 kPa
2 | FCF [difluoromethane] | 1473.2 ± 5.7 kPa | 1926.7 ± 6.1 kPa | 2476.3 ± 6.6 kPa | 3142.2 ± 7.2 kPa
3 | F/C=C/C(F)(F)F [trans-1,3,3,3-tetrafluoropropene] | 427.4 ± 5.1 kPa | 577.6 ± 5.1 kPa | 765.3 ± 5.2 kPa | 997.8 ± 5.3 kPa

Source: the NIST ThermoML archive (doi:10.1016/j.jct.2019.04.020)
